This is an account of results in patent US10087144B2, “Agents for use in the treatment of cardiovascular and inflammatory diseases structurally based on 4(1 H)-quinolone” (UCL Business PLC, priority 2015, dated 2018).

The inhibition is the share of the control response that was lost under treatment. For orientation: EC50 means the concentration giving half of the maximal effect.

Where two headings read alike, the source gives them in different places.

Assay [1] deals with rat mesenteric artery smooth muscle cells. The assay can be described thus: Ca2+ flux in response to Angiotensin II in isolated rat mesenteric artery smooth muscle cells (FLIPR). Format: cell-based. The settings on record: for inhibition at 1 µM / inhibition at 10 µM: Rattus norvegicus; for inhibition at 1 µM: read-out: % inhibition 1 μM; for inhibition at 10 µM: read-out: % inhibition 10 μM. The method, then: Mesenteric artery smooth muscle cells were isolated from male Sprague-Dawley rats (200-250 g). Mesenteric arteries were dissected, cleared of extraneous tissue and incubated in an enzyme solution containing collagenase type I (1 mg/ml), soybean trypsin inhibitor (0.25 mg/ml), bovine albumin (1 mg/ml), CaCl2 (0.2 mM), 100 U/ml penicillin (100 U/ml) and streptomycin (100 μg/ml) in a humidified incubator with 5% CO2 in air. The enzyme solution was replenished at 30 min intervals and cells were pelleted by centrifugation (200 g, 5 min) and differentially plated (×2) for 15 min in Dulbecco's Modified Eagle's Medium (DMEM) supplemented with penicillin (100 U/ml), streptomycin (100 μg/ml), L-Glutamine (2 mM) and 10% heat inactivated New Zealand foetal calf serum. Cells were passaged by trypsinisation and viability determined by trypan blue exclusion.
Measurements of Ca^2+ flux in response to Angiotensin II were conducted using a Fluorescent Imaging Plate Reader (FLIPR; Molecular Devices). Cells were plated at a density of 10,000 cells/well into black, clear-bottomed 96-well plates in DMEM supplemented with penicillin (100 U/ml), streptomycin (100 μg/ml), L-Glutamine (2 mM) and 10% heat inactivated New Zealand foetal calf serum. 24 hrs later the cells were incubated with Fluo-3-AM (4 μM) for 60 min at 37° C. Once dye-loaded, the cells were washed thoroughly with the proprietary assay buffer to remove any unincorporated dye. The cells were then incubated with varying concentrations of a number of representative NPR-C agonist molecules of the invention, C-type natriuretic peptide or vehicle (DMSO) and placed into the FLIPR. After 15 mins, Angiotensin II (100 nM) was automatically dispensed into each well and the fluorescence signal followed for 5 mins. Potency was determined by comparison of the peak fluorescence in each test well (run in triplicate) with that of the control (Angiotensin II alone). Background fluorescence (assay buffer only) was subtracted from all values.
Background: Calcium flux is commonly read through the fluorescence of an indicator in the cells.

For another assay, the system named is rat mesenteric arteries. The assay can be described thus: Vasoreactivity in rat mesenteric arteries in vitro (relaxation of U46619-contracted vessels, tension myograph). The procedure:
Male rats (Sprague-Dawley; 200-250 g) were stunned and killed by cervical dislocation. The mesentery was removed and third-order arteries mounted in an automated tension myograph (Danish Myotechnology). After an equilibration period of 45 min, vessels were normalized and diameter determined. Following normalization, each vessel was contracted repeatedly with the thromboxane A2-mimetic 9,11-dideoxy-11^α,9^α-epoxymethano-prostaglandin F2α (U46619; 1 μM) until the response was reproducible. The vessels were then washed to restore basal tone before contracting to approximately 50% of the maximum U46619-induced response. Once a stable response to U46619 was achieved, cumulative concentration-response curves were constructed with a variety of NPR-C agonists of the invention at varying concentrations (0.001-30 μM), or vehicle (DMSO). In some studies, concentration-response curves to NPR-C agonists were conducted in the presence of the NPR-C antagonist M372049 (10 μM). Only one curve to any one agonist was constructed in any single tissue.

The mark [2] stands for this setting: 1 μM compound, inhibition of Angiotensin II (100 nM) Ca2+ flux peak fluorescence.
Setting [3] is: 10 μM compound, inhibition of Angiotensin II (100 nM) Ca2+ flux peak fluorescence.

`COc1ccc2[nH]cc(C(=O)O)c(=O)c2c1` [Compound 104]: in assay [1] (setting [2]), the “% inhibition 1 μM” value is 0%. Besides, the “% inhibition 10 μM” value in assay [1] (setting [3]) is listed as 69%.
`O=C(O)c1cn(Cc2ccccc2)c2ccccc2c1=O` [Compound 86, 1-benzyl-4-oxo-1,4-dihydroquinoline-3-carboxylic acid]: the inhibition at 1 µM in assay [1] (setting [2]) was 0%. Moreover, the inhibition at 10 µM in assay [1] (setting [3]) worked out at 45%.
Regarding `CC(C)C(NC(=O)c1cn(Cc2ccccc2)c2ccccc2c1=O)C(=O)O` (stereo not shown) [Compound 116], in the assay on rat mesenteric arteries (1 μM, U46619-contracted third-order arteries), the “% relaxation 1 μM” value worked out at 4%. Further, the “% relaxation 3 μM” value with rat mesenteric arteries (3 μM, U46619-contracted third-order arteries) came out at 0%. Besides, in the assay with rat mesenteric arteries (10 μM, U46619-contracted third-order arteries), the “% relaxation 10 μM” value was 0%. Also, the “% relaxation 30 μM” value in the assay on rat mesenteric arteries (30 μM, U46619-contracted third-order arteries) came out at 9%. Besides, the “% inhibition 1 μM” value in assay [1] (setting [2]) was 80%. Further, the “% inhibition 10 μM” value in assay [1] (setting [3]) was 100%.
`CCOC(=O)c1c[nH]c2ccccc2c1=O` [Compound 84, ethyl 4-oxo-1,4-dihydroquinoline-3-carboxylate]: in assay [1], the inhibition at 1 µM was 40% and the inhibition at 10 µM was found to be 45%.
On to `O=C(O)c1c[nH]c2cc(C(F)(F)F)ccc2c1=O` [Compound 110], for which the “% inhibition 1 μM” value in assay [1] (setting [2]) was 70%. In assay [1] (setting [3]), the “% inhibition 10 μM” value amounted to 100%.
`O=C(O)c1cn(C2CC2)c2cc(N3CCNCC3)c(F)cc2c1=O` [Compound 134]: the “% inhibition 1 μM” value in assay [1] (setting [2]) is on record as 55%. Also, the “% inhibition 10 μM” value in assay [1] (setting [3]) is 80%.
In the same order, the values of `O=C(O)c1c[nH]c2ccc(Br)cc2c1=O` [Compound 113] are 12% and 100%.
`CC1CCc2c(N3CCC(O)CC3)c(F)c(N)c3c(=O)c(C(=O)O)cn1c23` (stereo not shown) [Compound 142]: the “% inhibition 1 μM” value in assay [1] (setting [2]) is on record as 18%. Further, in assay [1] (setting [3]), the “% inhibition 10 μM” value is reported as 75%.
For the molecule `O=C(O)c1ccc2[nH]cc(C(=O)O)c(=O)c2c1` [Compound 111], the “% inhibition 1 μM” value in assay [1] (setting [2]) stood at 100%. In assay [1] (setting [3]), the “% inhibition 10 μM” value was determined as 100%.
For the molecule `C[C@@H]1CN(c2c(F)c(N)c3c(=O)c(C(=O)O)cn(C4CC4)c3c2F)C[C@H](C)N1` [Compound 141], in assay [1] (setting [2]), the “% inhibition 1 μM” value is 0%. Also, the “% inhibition 10 μM” value in assay [1] (setting [3]) is 28%.
Take `O=C(O)c1c[nH]c2c(C(=O)O)cccc2c1=O` [Compound 109]: in assay [1] (setting [2]), the “% inhibition 1 μM” value was 18%. Moreover, the “% inhibition 10 μM” value in assay [1] (setting [3]) is listed as 100%.
For `Cc1ccc2[nH]cc(C(=O)O)c(=O)c2c1` [Compound 112], the “% inhibition 1 μM” value in assay [1] (setting [2]) turned out to be 100%. Also, in assay [1] (setting [3]), the “% inhibition 10 μM” value is reported as 100%.
For `CC(C)[C@H](NC(=O)c1cn(Cc2ccccc2)c2ccc(Br)cc2c1=O)C(=O)OC(C)(C)C` [Compound 63, (S)-tert-butyl 2-(1-benzyl-6-bromo-4-oxo-1,4-dihydroquinoline-3-carboxamido)-3-methylbutanoate], the inhibition at 1 µM in assay [1] (setting [2]) turned out to be 58%. In addition, in assay [1] (setting [3]), the inhibition at 10 µM is 100%.
Turning to `CC(C)C[C@H](NC(=O)c1cn(Cc2ccccc2)c2ccc(Br)cc2c1=O)C(=O)OC(C)(C)C` [Compound 60, (S)-tert-butyl 2-(1-benzyl-6-bromo-4-oxo-1,4-dihydroquinoline-3-carboxamido)-4-methylpentanoate], in assay [1] (setting [2]), the inhibition at 1 µM worked out at 0%. Moreover, the inhibition at 10 µM in assay [1] (setting [3]) is 80%.
Take `O=C(O)CNC(=O)c1cn(Cc2ccccc2)c2ccccc2c1=O` [Compound 117, 2-(1-benzyl-4-oxo-1,4-dihydroquinoline-3-carboxamido)acetic acid]: the inhibition at 1 µM with rat mesenteric arteries (Rattus norvegicus, 1 μM, U46619-contracted third-order arteries) was 0%; in assay [1] (setting [2]), 87%. This molecule gave an inhibition at 3 µM in the assay with rat mesenteric arteries (Rattus norvegicus, 3 μM, U46619-contracted third-order arteries) of 0%. The inhibition at 10 µM with rat mesenteric arteries (Rattus norvegicus, 10 μM, U46619-contracted third-order arteries) is 2%; in assay [1] (setting [3]), 100%. Moreover, the inhibition at 30 µM in the assay on rat mesenteric arteries (Rattus norvegicus, 30 μM, U46619-contracted third-order arteries) was found to be 42%. Moreover, the EC50 with rat mesenteric arteries (Rattus norvegicus, vasorelaxation, calculated from concentration-response curves) is over 50 µM.
Consider `O=C(O)c1cn(Cc2ccccc2)c2ccc(Br)cc2c1=O` [Compound 27, 1-benzyl-6-bromo-4-oxo-1,4-dihydroquinoline-3-carboxylic acid], for which the inhibition at 1 µM in assay [1] (setting [2]) was 0%. In addition, the inhibition at 10 µM in assay [1] (setting [3]) was 50%.
For `CC(C)c1cccc2c(=O)c(C(=O)O)c[nH]c12` [Compound 103], the “% inhibition 1 μM” value in assay [1] (setting [2]) was 0%. For the same molecule, in assay [1] (setting [3]), the “% inhibition 10 μM” value stood at 65%.
With `C[C@H](NC(=O)c1cn(Cc2ccccc2)c2ccc(Br)cc2c1=O)C(=O)OC(C)(C)C` [Compound 59, (S)-tert-butyl 2-(1-benzyl-6-bromo-4-oxo-1,4-dihydroquinoline-3-carboxamido)propanoate], in assay [1] (setting [2]), the inhibition at 1 µM came to 20%. For the same molecule, the inhibition at 10 µM in assay [1] (setting [3]) was determined as 90%.
Take `CC1COc2c(N3CCN(C)CC3)c(F)cc3c(=O)c(C(=O)O)cn1c23` (stereo not shown) [Compound 136]: the “% inhibition 1 μM” value in assay [1] (setting [2]) was determined as 15%. Also, the “% inhibition 10 μM” value in assay [1] (setting [3]) was found to be 20%.
In the case of `CN(C)c1ccc2[nH]cc(C(=O)O)c(=O)c2c1` [Compound 108], the “% inhibition 1 μM” value in assay [1] (setting [2]) is on record as 0%. Further, the “% inhibition 10 μM” value in assay [1] (setting [3]) turned out to be 90%.
In the case of `O=C(O)c1c[nH]c2ccc(F)cc2c1=O` [Compound 114], the “% inhibition 1 μM” value in assay [1] (setting [2]) was determined as 100%. Moreover, the “% inhibition 10 μM” value in assay [1] (setting [3]) came out at 100%.
Turning to `CC(C)(C)OC(=O)CNC(=O)c1cn(Cc2ccccc2)c2ccccc2c1=O` [Compound 87, tert-butyl 2-(1-benzyl-4-oxo-1,4-dihydroquinoline-3-carboxamido)acetate], the inhibition at 1 µM in assay [1] (setting [2]) was found to be 0%. For the same molecule, the inhibition at 10 µM in assay [1] (setting [3]) was 67%.
For `CCOC(=O)c1cn(Cc2ccccc2)c2ccccc2c1=O` [Compound 85, ethyl 1-benzyl-4-oxo-1,4-dihydroquinoline-3-carboxylate], in that order: 0% and 97%.
Regarding `O=C(O)c1ccc2c(=O)c(C(=O)O)c[nH]c2c1` [Compound 106], the “% inhibition 1 μM” value in assay [1] (setting [2]) was determined as 90%. The “% inhibition 10 μM” value in assay [1] (setting [3]) is on record as 90%.
On to `CC(C)(C)OC(=O)CNC(=O)c1cn(Cc2ccccc2)c2ccc(Br)cc2c1=O` [Compound 62], for which, in assay [1] (setting [2]), the “% inhibition 1 μM” value was determined as 0%. In addition, the “% inhibition 10 μM” value in assay [1] (setting [3]) turned out to be 50%.
Consider `CC(C)(C)OC(=O)[C@H](Cc1ccccc1)NC(=O)c1cn(Cc2ccccc2)c2ccc(Br)cc2c1=O` [Compound 61, (S)-tert-butyl 2-(1-benzyl-6-bromo-4-oxo-1,4-dihydroquinoline-3-carboxamido)-3-phenylpropanoate], for which the inhibition at 1 µM in assay [1] (setting [2]) came out at 27%. In addition, the inhibition at 10 µM in assay [1] (setting [3]) stood at 100%.
Turning to `CC(C)[C@H](NC(=O)c1cn(Cc2ccccc2)c2ccccc2c1=O)C(=O)OC(C)(C)C` [Compound 88, (S)-tert-butyl 2-(1-benzyl-4-oxo-1,4-dihydroquinoline-3-carboxamido)-3-methylbutanoate], in assay [1] (setting [2]), the inhibition at 1 µM came out at 12%. Moreover, the inhibition at 10 µM in assay [1] (setting [3]) amounted to 55%.
As for `O=C(O)c1c[nH]c2ccccc2c1=O` [Compound 57], in assay [1] (setting [2]), the “% inhibition 1 μM” value is 0%. For the same molecule, the “% inhibition 10 μM” value in assay [1] (setting [3]) is given as 35%.
As to `CC(=O)c1ccc2[nH]cc(C(=O)O)c(=O)c2c1` [Compound 105], in assay [1] (setting [2]), the “% inhibition 1 μM” value is 80%. Moreover, the “% inhibition 10 μM” value in assay [1] (setting [3]) was determined as 100%.
With `CC1COc2c(N3CCN(C)CC3)c(F)cc3c(=O)c(C(=O)O)cn1c23` (stereo not shown) [Compound 138], the “% inhibition 1 μM” value in assay [1] (setting [2]) was determined as 11%. Further, in assay [1] (setting [3]), the “% inhibition 10 μM” value is recorded as 40%.
For `CN1CCN(c2cc3c(cc2F)c(=O)c(C(=O)O)cn3-c2ccc(F)cc2)CC1` [Compound 144], in that order: 23% and 40%.
Consider `Cc1cccc2c(=O)c(C(=O)O)c[nH]c12` [Compound 107], for which the “% inhibition 1 μM” value in assay [1] (setting [2]) is 15%. In addition, in assay [1] (setting [3]), the “% inhibition 10 μM” value amounted to 100%.
